In EP0560267B1, “Isosteric antiherpes peptide derivatives” (BOEHRINGER INGELHEIM (CANADA) LTD., priority 1992, dated 1993):

Key:
HSV-2 = experiment: Inhibition of Herpes Simplex Virus (HSV-2) replication in cell culture; format: cell-based; details: Human alphaherpesvirus 2, Table IV; cell culture assay of example 11; read-out: EC50
Protocol: Inhibition of Herpes Simplex Virus (HSV-2) Replication in Cell Culture
BHK-21/C13 cells (ATCC CCL 10) are incubated for two days in 150 cm^2 T-flasks (1.5 x 10^6 cells/flask) with alpha-MEM medium (Gibco Canada Inc., Burlington, Ontario, Canada) supplemented with 8% (v/v) fetal bovine serum (FBS, Gibco Canada Inc.). The cells are trypsinized and then transferred to fresh media in a 24 well plate to give 2.5 x 10^5 cells in 750 µL of media per well. The cells are incubated at 37° for a period of 6 h to allow them to adhere to the plate. Thereafter, the cells are washed once with 500 µL of alpha-MEM supplemented with 0.5% (v/v) FBS and then incubated with 750 µL of the same media (low serum) for 3 days. After this period of serum starvation, the low serum medium is removed and the cells are incubated in 500 µL of BBMT for 2 to 3 hours. {BBMT medium is described by P. Brazeau et al., Proc. Natl. Acad. Sci. USA, 79, 7909 (1982).} Thereafter, the cells are infected with HSV-2 (multiplicity of infection = 0.02 PFU/cell) in 100 µL of BBMT medium. (Note: The HSV-2 used was strain HG-52, see Y. Langelier and G. Buttin, J. Gen. Virol., 57, 21 (1981); the virus was stored at -80°.) Following 1 h of virus adsorption at 37°, the media is removed and the cells are washed with BBMT (3 X 250 µL). The cells in each well are incubated with or without (control) appropriate concentrations of the test agent dissolved in 200 µL of BBMT medium. After 29 h of incubation at 37°, the infected cells are harvested by first freezing the plate at -80°, followed by thawing. The cells in each well are scraped off the surface of the well with the help of the melting ice fragments. After complete thawing, the cell suspensions are collected and each well is rinsed with 150 µL of BBMT medium. The viral sample (suspension plus washing) is sonicated gently for 4 min at 4°. Cell debris are removed by centrifugation (1000 times gravity for 10 minutes at 4°). The supernatant is collected and stored at -80° until determination of viral titer.
Viral titration was performed by a modification of the colorimetric assay method of M. Langlois et al., Journal of Biological Standardization, 14, 201 (1986).
More specifically, in a similar manner as described above, BHK-21/C13 cells are trypsinized and transferred to fresh media in a 96 well microtiter plate to give 20,000 cells in 100 µL of media per well. The cells in the prepared plate are incubated at 37° for 2 h. During that time, the viral sample is thawed and sonicated gently for 15 seconds, and log dilutions of the sample are prepared (1/5 sequential: 50 µL of the sample plus 200 µL of BBMT medium, sequential dilutions being done with a multichannel pipette.
On completion of the above 2 hour incubation of the BHK-21/C13 cells, the media is replaced with alpha-MEM medium supplemented with 3% (v/v) FBS. The cells are now ready to be infected with the various sample dilutions of virus. Aliquots (50 µL) of the various dilutions are transferred into the appropriate wells of the plate. The resulting infected cells are incubated for 2 days at 37°. Then 50 µL of a 0.15% (v/v) solution of neutral red dye in Hank's Balanced Salt Solution (pH 7.3, Gibco Canada Inc.) is added to each well. The prepared plate is incubated for 45 min at 37°. Medium from each well is then aspirated and the cells are washed once with 200 µL of Hank's Balanced Salt Solution. […]

[1] = target: T1, HSV-1 ribonucleotide reductase (Human herpesvirus 1, UniProt P08543); experiment: Inhibition of Herpes Simplex Virus (HSV-1) ribonucleotide reductase; format: biochemical; details: Table IV; assay of example 10
T1 construct: HSV-1 ribonucleotide reductase (partially purified) was obtained from quiescent BHK-21/C13 cells infected with strain F HSV-1 virus; made in house; host or cells: quiescent BHK-21/C13 cells infected with HSV-1 strain F (virus-encoded enzyme, partially purified)
T1 sequence (P08543 whole entry): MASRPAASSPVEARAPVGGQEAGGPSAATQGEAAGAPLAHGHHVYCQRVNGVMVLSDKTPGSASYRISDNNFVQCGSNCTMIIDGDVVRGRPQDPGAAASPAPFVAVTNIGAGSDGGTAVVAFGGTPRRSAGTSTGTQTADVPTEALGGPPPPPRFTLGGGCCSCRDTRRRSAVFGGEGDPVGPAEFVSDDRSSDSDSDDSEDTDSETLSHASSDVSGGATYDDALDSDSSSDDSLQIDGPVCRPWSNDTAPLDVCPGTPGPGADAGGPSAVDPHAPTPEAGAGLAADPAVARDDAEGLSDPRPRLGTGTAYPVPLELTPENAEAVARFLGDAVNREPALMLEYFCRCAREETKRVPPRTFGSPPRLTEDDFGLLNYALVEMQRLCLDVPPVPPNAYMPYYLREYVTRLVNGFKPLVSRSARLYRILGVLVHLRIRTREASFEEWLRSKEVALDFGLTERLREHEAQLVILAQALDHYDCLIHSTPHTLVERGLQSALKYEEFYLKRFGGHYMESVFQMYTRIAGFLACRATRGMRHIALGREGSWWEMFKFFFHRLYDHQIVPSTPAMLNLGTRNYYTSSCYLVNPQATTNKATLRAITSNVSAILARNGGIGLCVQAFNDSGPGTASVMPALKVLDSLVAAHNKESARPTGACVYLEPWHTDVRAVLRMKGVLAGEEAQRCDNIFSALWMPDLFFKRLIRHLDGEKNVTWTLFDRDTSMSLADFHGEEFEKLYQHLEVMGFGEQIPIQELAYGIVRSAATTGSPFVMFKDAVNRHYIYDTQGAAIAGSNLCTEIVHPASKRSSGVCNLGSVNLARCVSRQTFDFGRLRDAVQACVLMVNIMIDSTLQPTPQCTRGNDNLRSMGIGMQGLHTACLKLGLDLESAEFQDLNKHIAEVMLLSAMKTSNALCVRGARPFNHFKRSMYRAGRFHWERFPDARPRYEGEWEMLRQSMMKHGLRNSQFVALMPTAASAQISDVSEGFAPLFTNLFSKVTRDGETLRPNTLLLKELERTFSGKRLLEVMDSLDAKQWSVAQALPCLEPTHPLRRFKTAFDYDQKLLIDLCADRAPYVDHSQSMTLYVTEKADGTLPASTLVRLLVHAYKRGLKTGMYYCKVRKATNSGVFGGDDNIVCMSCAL
From the text: Inhibition of Herpes Simplex Virus (HSV-1) Ribonucleotide Reductase
• a) Preparation of Enzyme HSV-1 ribonucleotide reductase (partially purified) was obtained from quiescent BHK-21/C13 cells infected with strain F HSV-1 virus at 10 plaque forming units/cell as described by E.A. Cohen et al., J. Gen. Virol., 66, 733 (1985). • b) Assay and Results for Exemplified Peptides By following the procedure described by P. Gaudreau et al., J. Biol, Chem., 262, 12413 (1987), the assay results listed in the following Table I were obtained. The assay result for each exemplified compound of formula 1 is expressed as the concentration of the compound producing 50% of the maximal inhibition (IC50) of enzyme activity. The number of units of the enzyme preparation used in each assay was constant, based on the specific activity of the enzyme preparation. The results are relative to the activity obtained in control experiments without the test compound and represent the mean of four assays that varied less than 10% with each other.

| SMILES | EC50 (HSV-2) [µM] | IC50 [1] [µM] |
| --- | --- | --- |
| CCCC(C)(CCC)NC(=O)N[C@H](C(=O)C[C@@H](CC(=O)C(C)(C)C)C(=O)N[C@H](C(=O)NCC(C)(C)C)C1(C(=O)O)CCCC1)C(C)(C)C [MePr2CNHC(O) / NHCH2CMe3, MePr2CNHC(O)-Tbg-CH2-(R)-CH(CH2C(O)CMe3)C(O)-Asp(cyPn)-NHCH2CMe3] | 26 | 0.28 |
| CCCC(CCC)NC(=O)NC(C(=O)CC(CC(=O)C(C)(C)C)C(=O)NC(C(=O)NC(CC)C(C)(C)C)C1(C(=O)O)CCCC1)C(C)(C)C [Pr2CHNHC(O) / NH-(R)-CH(Et)CMe3, Pr2CHNHC(O)-Tbg-CH2-(R)-CH(CH2C(O)CMe3)C(O)-Asp(cyPn)-NH-(R)-CH(Et)CMe3] | 10 | 0.34 |
| CCCC(CCC)NC(=O)NC(C(=O)CC(CC(=O)C(C)(C)C)C(=O)NC(C(=O)NC(C)CC(C)(C)C)C1(C(=O)O)CCCC1)C(C)(C)C [Pr2CHNHC(O) / NH-(R)-CH(Me)CH2CMe3, Pr2CHNHC(O)-Tbg-CH2-(R)-CH(CH2C(O)CMe3)C(O)-Asp(cyPn)-NH-(R)-CH(Me)CH2CMe3] | 14 | 0.37 |
| CCCC(CCC)NC(=O)NC(C(=O)CC(CC(=O)C(C)(C)C)C(=O)NC(C(=O)NC(C)C(CC)CC)C1(C(=O)O)CCCC1)C(C)(C)C [Pr2CHNHC(O) / NH-(R)-CH(Me)CHEt2, Pr2CHNHC(O)-Tbg-CH2-(R)-CH(CH2C(O)CMe3)C(O)-Asp(cyPn)-NH-(R)-CH(Me)CHEt2] | 16 | 0.33 |
| CCCC(CCC)NC(=O)NC(C(=O)CC(CC(=O)C(C)(C)C)C(=O)NC(C(=O)NC(C)C(C)(C)C)C1(C(=O)O)CCCC1)C(C)(C)C [Pr2CHNHC(O) / NH-(R)-CH(Me)CMe3, Pr2CHNHC(O)-Tbg-CH2-(R)-CH(CH2C(O)CMe3)C(O)-Asp(cyPn)-NH-(R)-CH(Me)CMe3] | 14 | 0.28 |
| CCCC(CCC)NC(=O)NC(C(=O)CC(CC(=O)C(C)(C)C)C(=O)NC(C(=O)NC(CCC)C(C)(C)C)C1(C(=O)O)CCCC1)C(C)(C)C [Pr2CHNHC(O) / NH-(R)-CH(Pr)CMe3, Pr2CHNHC(O)-Tbg-CH2-(R)-CH(CH2C(O)CMe3)C(O)-Asp(cyPn)-NH-(R)-CH(Pr)CMe3] | 15 | 0.43 |
| CCCC(CCC)NC(=O)NC(C(=O)CC(CC(=O)C(C)(C)C)C(=O)NC(C(=O)NC(CO)C(C)(C)C)C1(C(=O)O)CCCC1)C(C)(C)C [Pr2CHNHC(O) / NH-(S)-CH(CMe3)CH2OH, Pr2CHNHC(O)-Tbg-CH2-(R)-CH(CH2C(O)CMe3)C(O)-Asp(cyPn)-NH-(S)-CH(CMe3)CH2OH] | 48 | 0.23 |
| CCCC(CCC)NC(=O)NC(C(=O)CC(CC(=O)C(C)(C)C)C(=O)NC(C(=O)NN(C)C(C)(C)C)C1(C(=O)O)CCCC1)C(C)(C)C [Pr2CHNHC(O) / NH-N(Me)CMe3, Pr2CHNHC(O)-Tbg-CH2-(R)-CH(CH2C(O)CMe3)C(O)-Asp(cyPn)-NH-N(Me)CMe3] | 110 | 0.27 |
| CCCC(CCC)NC(=O)NC(C(=O)CC(CC(=O)C(C)(C)C)C(=O)NC(C(=O)NCC(C)CC)C1(C(=O)O)CCCC1)C(C)(C)C [Pr2CHNHC(O) / NHCH2-(R,S)-CH(Me)Et, Pr2CHNHC(O)-Tbg-CH2-(R)-CH(CH2C(O)CMe3)C(O)-Asp(cyPn)-NHCH2-(R,S)-CH(Me)Et] | 50 | 0.29 |
| CCCC(CCC)NC(=O)NC(C(=O)CC(CC(=O)C(C)(C)C)C(=O)NC(C(=O)NCC1CCCCC1)C1(C(=O)O)CCCC1)C(C)(C)C [Pr2CHNHC(O) / NHCH2-(cyclohexyl), Pr2CHNHC(O)-Tbg-CH2-(R)-CH(CH2C(O)CMe3)C(O)-Asp(cyPn)-NHCH2-(cyclohexyl)] | 47 | 0.36 |
